Consider two compounds from US6867213B2, “(2S)-2-(adamantan-1-ylmethoxycarbonylamino)-3-(4-(2-(1,4,5,6-tetrhydropyrimidin-2-ylcarbamoyl)ethyl)benzoylamino)propionic acid isopropyl ester, its preparation and its use” (Aventis Pharma Deutschland GmbH, priority 2000, dated 2005).

Series [1] has as its system thyroparathyroidectomized (TPTX) rats. Put plainly: PTH-induced hypercalcemia in the TPTX rat model of bone resorption. It is filed as in vivo, rat (male Sprague Dawley). The conditions noted are these: PTH treated TPTX rats; s.c. twice at 30 mg/kg, at time 0 and 3 h after start of PTH infusion; serum collected at 6 hours. The text has this: 3) Pharmacological Testing: PTH-Induced Hypercalcemia in the TPTX Rat Model of Bone Resorption
In this in vivo model a stimulation of bone resorption is induced in thyroparathyroidectomized (TPTX) rats by the infusion of parathyroid hormone (PTH). The changes in bone resorption are monitored by measuring the serum calcium concentration which is directly related to the extent of bone resorption.
Male Sprague Dawley rats (OFA-IFFA CREDO, France) weighting 150-200 g were thyroparathyroidectomized by the supplier. The rats were allowed free access to a standard commercial pelleted diet containing 7 g Ca/kg (UAR) and Eau de Volvic water. The success of thyroparathyroidectomy was tested by measuring serum calcium concentrations 8 days after operation in overnight fasted animals. Rats were considered as TPTX when the serum calcium level was <80 mg/l.
For treatment with PTH, rat PTH(1-34) (Bachem) was dissolved in 0.15 M sodium chloride solution containing 2% Cys-HCl and delivered via osmotic minipumps (ALZET 2001D) at 200 pmol/kg/h. […]
Serum total calcium concentrations (=calcemia) were measured colorimetrically (Ciba-Corning) using a IEMS Labsystems microplate reader at 540 nm. The differences between the mean values of calcemia in the groups were analysed for variance and by Dunnett's test. The activity of the test compound was calculated as % effect according to the formula: [formula]

Counter-ions that a name gives are not always drawn.

For orientation: melting point means the temperature, or range, at which the solid turns liquid.

In turn, `CC(C)OC(=O)[C@H](CNC(=O)c1ccc(CCC(=O)NC2=NCCCN2)cc1)NC(=O)OCC12CC3CC(CC(C3)C1)C2` (as salt: hydrochloride) [formula IIc, (2S)-2-(Adamantan-1-ylmethoxycarbonylamino)-3-(4-(2-(1,4,5,6-tetrahydropyrimidin-2-ylcarbamoyl)ethyl)benzoylamino)propionic Acid Isopropyl Ester Hydrochloride] yielded a melting point of 208 to 210 °C. Take `CC(C)OC(=O)[C@H](CNC(=O)c1ccc(CCC(=O)NC2=NCCCN2)cc1)NC(=O)OCC12CC3CC(CC(C3)C1)C2` [formula IIc, (2S)-2-(Adamantan-1-ylmethoxycarbonylamino)-3-(4-(2-(1,4,5,6-tetrahydropyrimidin-2-ylcarbamoyl)ethyl)benzoylamino)propionic Acid Isopropyl Ester Hydrochloride]: the “% effect (on calcemia = serum total calcium concentration)” value in series [1] is on record as −97%.
